Experiment [1] deals with T1, dPHD-HD1 complex (Drosophila Pygo PHD with Lgs HD1) (Drosophila melanogaster, UniProt Q961D9+Q9V9W8).
T1 construct: Drosophila Pygo PHD (amino acids 747–808); GST (N, cleaved yes); made in house; host or cells: E. coli BL21-CodonPlus(DE3)-RIL
T1 sequence (Q9V9W8 747-808): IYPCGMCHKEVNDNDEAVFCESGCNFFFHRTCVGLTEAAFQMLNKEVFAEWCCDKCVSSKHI
T1 sequence (Q961D9 316-350 partner limits assumed): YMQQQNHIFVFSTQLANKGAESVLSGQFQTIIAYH
Briefly: ITC, histone tail peptides with Drosophila PHD-HD1 complex. The class given is binding. On the procedure:
(§1) ITC was carried out using a VP-ITC Microcal calorimeter (Microcal, Northhampton, MA, USA). Peptides were lyophilized against freshly prepared 20mM ammonium bicarbonate solution and resuspended in the ITC dialysis buffer (25mM Tris pH 8.0, 100mM NaCl and 2mM β-mercaptoethanol). Experiments were performed at 25 °C. During titration, 4-12µl aliquots of 0.5-1.0mM peptide solution was injected into a solution of 50µM protein at time intervals of 5 min. ITC data were corrected for the heat of dilution and analyzed using Origin (version 5.0) provided by the manufacturer. […]
In general terms: In ITC the heat of successive injections is recorded.

Experiment [2] deals with T2, hPHD-HD1 complex (hPygo1 PHD with hBCL9 HD1) (Homo sapiens, UniProt O00512+Q9Y3Y4).
T2 construct: hPygo1 PHD (amino acids 333–402); GST (N, cleaved yes); made in house; host or cells: E. coli BL21-CodonPlus(DE3)-RIL
T2 sequence (Q9Y3Y4 333-402): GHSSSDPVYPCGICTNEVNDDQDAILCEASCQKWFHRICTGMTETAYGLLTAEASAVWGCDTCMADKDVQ
T2 sequence (O00512 177-205 partner limits assumed): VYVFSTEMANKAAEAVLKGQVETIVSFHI
Briefly: ITC, histone tail peptides with human PHD-HD1 complex. The class given is binding. Particulars: ITC at 25 °C. On the procedure:
as §1

The target of experiment [3] is T3, PHD finger from hPygo1 (hPHD) (Homo sapiens, UniProt Q9Y3Y4).
T3 construct: hPygo1 PHD (amino acids 333–402); GST (N, cleaved yes); made in house; host or cells: E. coli BL21-CodonPlus(DE3)-RIL
T3 sequence (Q9Y3Y4 333-402): T2 sequence (Q9Y3Y4 333-402)
Description: ITC, histone tail peptides with free hPHD. The class given is binding. Particulars: 15-mer peptides, ITC at 25 °C, pH 8.0. On the procedure: Free PHD fingers were purified similarly to the PHD-HD1 complexes, and purity was assessed by SDS-PAGE prior to use for ITC.
as §1

Experiment [4] relates to PHD from hPygo1 (GST-hPHD). Description: In vitro pull-down, MBP-tagged HD1 deletions with GST-hPHD. The class given is binding, human. Particulars: systematic N- and C-terminal deletions of HD1, MBP-tagged. On the procedure:
Figure S2. Deletion Analysis of hBCL9 HD1 and Binding to hPygo1 PHD
(A) Systematic N- and C-terminal deletions of HD1 from hBCL9 (underlined), individually and combined (bottom); sequences between, and including, red (marking deletion end-points) were tested for their in vitro binding to PHD from hPygo1 (B), as summarized on […]
(B) In vitro pull-down assays, to test binding between MBP-tagged HD1 deletions and GST-hPHD; positive controls, Lgs HD1, hBCL9 AKV-TER; negative controls, GST, MBP-ACTN2; IP, input (5%); G, GST; PHD, GST-hPHD. […]

Read-outs that look alike come from different tables or passages of the source.

As usually defined, the Kd is the free concentration of one partner at which half of the binding sites on the other are occupied at equilibrium, for simple one-to-one binding. In the case of `CNCCCC[C@H](NC(=O)[C@@H](NC(=O)[C@H](CCCNC(=N)N)NC(=O)[C@H](C)N)[C@@H](C)O)C(=O)N[C@@H](CCC(N)=O)C(=O)N[C@H](C(=O)N[C@@H](C)C(=O)N[C@@H](CCCNC(=N)N)C(=O)N[C@@H](CCCCN)C(=O)N[C@@H](CO)C(=O)N[C@H](C(=O)NCC(=O)NCC(=O)N[C@@H](CCCCN)C(=O)N[C@@H](C)C(=O)O)[C@@H](C)O)[C@@H](C)O` [15-mer H3K4me1], the Kd in experiment [1] (Figure 3B, dPHD-HD1, ITC at 25 °C, pH 8.0, 100 mM NaCl, 25 mM Tris-HCl, 10 μM ZnCl2, 2 mM β-mercaptoethanol, 50µM protein, 0.5-1.0mM peptide, one-site model, ± fitting error, read-out: Binding constant (Kd)) stood at 21.5 ± 0.3 µM; in experiment [2] (human PHD-HD1 complex, pH 8.0, read-out: Kd) it was 2.9 µM; in experiment [3], 9 µM.
In the case of `C[C@H](N)C(=O)N[C@@H](CCCNC(=N)N)C(=O)N[C@H](C(=O)N[C@@H](CCCCN(C)C)C(=O)N[C@@H](CCC(N)=O)C(=O)N[C@H](C(=O)N[C@@H](C)C(=O)N[C@@H](CCCNC(=N)N)C(=O)N[C@@H](CCCCN)C(=O)O)[C@@H](C)O)[C@@H](C)O` [9-mer H3K4me2], the Kd in experiment [2] (Figure 3B, hPHD-HD1, pH 8.0, 100 mM NaCl, 25 mM Tris-HCl, 10 μM ZnCl2, 2 mM β-mercaptoethanol, 50µM protein, 0.5-1.0mM peptide, one-site model, ± fitting error, read-out: Binding constant (Kd)) came out at 11.4 ± 1.1 µM.
As for `C[C@H](N)C(=O)N[C@@H](CCCNC(=N)N)C(=O)N[C@H](C(=O)N[C@@H](CCCCN(C)C)C(=O)N[C@@H](CCC(N)=O)C(=O)N[C@H](C(=O)N[C@@H](C)C(=O)N[C@@H](CCCNC(=N)N)C(=O)N[C@@H](CCCCN)C(=O)N[C@@H](CO)C(=O)N[C@H](C(=O)NCC(=O)NCC(=O)N[C@@H](CCCCN)C(=O)N[C@@H](C)C(=O)O)[C@@H](C)O)[C@@H](C)O)[C@@H](C)O` [15-mer H3K4me2], the Kd in experiment [1] (Figure 3A panel, dPHD-HD1, 15-mer peptide, ITC at 25 °C, 100 mM NaCl, 25 mM Tris-HCl pH 8.0, 10 μM ZnCl2, 2 mM β-mercaptoethanol, 50µM protein, 0.5-1.0mM peptide, one-site model, ± fitting error, read-out: Kd) worked out at 12.6 ± 0.5 µM; in experiment [2] (Figure 3A panel, hPHD-HD1, 15-mer peptides, 100 mM NaCl, 25 mM Tris-HCl pH 8.0, 10 μM ZnCl2, 2 mM β-mercaptoethanol, 50µM protein, 0.5-1.0mM peptide, one-site model, ± fitting error, read-out: Kd), 0.93 ± 0.01 µM; in experiment [3], 2.4 µM.
As for “9-mer H3K4me2 A1>G: 9-mer whose A1 was substituted with a glycine (A1 > G) (GRTKQTARK; dimethyl-lysine at K4)”, the “binding (in words)” value in experiment [2] (human PHD-HD1 complex, pH 8.0) is given as “reduced to almost background levels”.
Turning to “9-mer H3K4me2 ΔA1: truncated H3K4me2 peptide spanning R2-K9 (without A1, ΔA1) (RTKQTARK; dimethyl-lysine at K4)”, in experiment [2] (human PHD-HD1 complex, pH 8.0), the “binding (in words)” value is recorded as “No binding was detectable”.
“V177-I205: minimal PHD-interacting fragment of HD1 from hBCL9 (VYVFSTEMANKAAEAVLKGQVETIVSFHI; HD1; UniProt O00512 177-205, looked up, fragment)”: the “PHD binding of HD1 fragment (in words)” value in experiment [4] is “minimal PHD-interacting fragment”.
As for `C[C@H](N)C(=O)N[C@@H](CCCNC(=N)N)C(=O)N[C@H](C(=O)N[C@@H](CCCC[N+](C)(C)C)C(=O)N[C@@H](CCC(N)=O)C(=O)N[C@H](C(=O)N[C@@H](C)C(=O)N[C@@H](CCCNC(=N)N)C(=O)N[C@@H](CCCCN)C(=O)N[C@@H](CO)C(=O)N[C@H](C(=O)NCC(=O)NCC(=O)N[C@@H](CCCCN)C(=O)N[C@@H](C)C(=O)O)[C@@H](C)O)[C@@H](C)O)[C@@H](C)O` [15-mer H3K4me3], the Kd in experiment [1] was 23 µM.

Source of the values: publication PMC2726290, “Decoding of Methylated Histone H3 Tail by the Pygo-BCL9 Wnt Signaling Complex” (Molecular Cell, 2008).
